The nature of data set [1]: 7-day stability tests of the salt (XRPD, HPLC purity). The data set is classed as physicochemical. The settings on record: for Purity (%) by HPLC after 7-day stability test: 7 days. As for the experimental part:
7-day stability tests were carried out as follows: 15 mg of salt was weighed into x3 2 mL vials. The vials were then placed at 40° C./75% RH, 80° C. and under ambient light; after 1 week, the solids were analysed by XRPD and HPLC purity (method A).

For data set [2], the system named is α-syn aggregation. The data set is described as follows: α-synuclein aggregation in TH(+) neurons after MPP+ injury. The data set is classed as cell-based, rat. The settings on record: MPP+ 4 μM 48 h. As for the experimental part: (§1) Rat dopaminergic neurons were cultured as described by Visanji et al. in FASEB J. 2008, 22(7): 2488-2497 and Callizot et al., in Plos One 2019: https://doi.org/10.1371/journal.pone.0215277. Briefly, pregnant female rat (Wistar) of 15 days of gestation were killed using a deep anesthesia with CO2 chamber and a cervical dislocation. The midbrains obtained from 15-day-old rat embryos (Janvier, France) were dissected under a microscope. The embryonic midbrains were removed and placed in ice-cold medium of Leibovitz (L15) containing 2% of Penicillin-Streptomycin (PS) and 1% of BSA. The ventral portion of the mesencephalic flexure, a region of the developing brain rich in dopaminergic neurons, were used for the cell preparations. The midbrains were dissociated by trypsinization for 20 min at 37° C. (solution at a final concentration of 0.05% trypsin and 0.02% EDTA). The reaction was stopped by the addition of DMEM containing DNAase I grade II (0.5 mg/mL) and 10% of FCS. […] Viable cells were counted in a Neubauer cytometer using the trypan blue exclusion test. […]
(§2) The following read-outs were investigated: • neuron survival: total number of TH neurons (TH staining), • neurite network: total length of neurite network of TH positive neurons (in μm) • α-syn aggregation (area of overlapping between TH and α-syn staining in μm^2) […]

Data set [3] relates to dopaminergic (TH positive) neurons. The data set is described as follows: Survival and neurite network of TH(+) mesencephalic neurons after rotenone injury. The data set is classed as cell-based, rat. The settings on record: rotenone 10 nM 24 h. The protocol: Rat dopaminergic neurons were cultured as described by Visanji et al. in FASEB J. 2008, 22(7): 2488-2497 and Callizot et al., in Plos One 2019: https://doi.org/10.1371/journal.pone.0215277. Briefly, pregnant female rat (Wistar) of 15 days of gestation were killed using a deep anesthesia with CO2 chamber and a cervical dislocation. The midbrains obtained from 15-day-old rat embryos (Janvier, France) were dissected under a microscope. The embryonic midbrains were removed and placed in ice-cold medium of Leibovitz (L15) containing 2% of Penicillin-Streptomycin (PS) and 1% of BSA. The ventral portion of the mesencephalic flexure, a region of the developing brain rich in dopaminergic neurons, were used for the cell preparations. The midbrains were dissociated by trypsinization for 20 min at 37° C. (solution at a final concentration of 0.05% trypsin and 0.02% EDTA). The reaction was stopped by the addition of DMEM containing DNAase I grade II (0.5 mg/mL) and 10% of FCS. Cells were then mechanically dissociated by 3 passages through a 10 ml pipette. Cells were then centrifuged at 180×g for 10 min at +4° C. on a layer of BSA (3.5%) in L15 medium. The supernatant was discarded and the cell pellets were re-suspended in a defined culture medium consisting of Neurobasal supplemented with B27 (2%), L-glutamine (2 mM) and 2% of PS solution and 10 ng/mL of BDNF and 1 ng/mL of Glial-Derived Neurotrophic Factor (GDNF). Viable cells were counted in a Neubauer cytometer using the trypan blue exclusion test. The cells were seeded at a density of 40,000 cells/well in 96 well-plates (pre-coated with poly-L-lysine) and maintained in a humidified incubator at 37° C. in 5% CO2/95% air atmosphere. Half of the medium was changed every 2 days with fresh medium. […]
as §2

Data set [4] is described as follows: Gravimetric vapour sorption (GVS). The data set is classed as physicochemical. As for the experimental part: Approximately 10-20 mg of sample was placed into a mesh vapour sorption balance pan and loaded into an IGASorp Moisture Sorption Analyser balance by Hiden Analytical. The sample was subjected to a ramping profile from 40-90% relative humidity (RH) at 10% increments, maintaining the sample at each step until a stable weight had been achieved (98% step completion, minimum step length 30 minutes, maximum step length 60 minutes) at 25° C. After completion of the sorption cycle, the sample was dried using the same procedure to 0% RH, and finally taken back to the starting point of 40% RH. Two cycles were performed. The weight change during the sorption/desorption cycles were plotted, allowing for the hygroscopic nature of the sample to be determined.

The subject of data set [5] is dopaminergic (TH positive) neurons. The data set is described as follows: Survival and neurite network of TH(+) mesencephalic neurons after MPP+ injury. The settings on record: MPP+ 4 μM 48 h; 50 nM dose. The data set is classed as cell-based, rat. As for the experimental part: as §1, §2
Data set [6] has as its system α-syn aggregation. The data set is described as follows: α-synuclein aggregation in TH(+) neurons after rotenone injury. The data set is classed as cell-based, rat. The settings on record: rotenone 10 nM 24 h. As for the experimental part:
as §1, §2

Data set [7] can be described thus: Solubility assessment in unbuffered water and pH buffers. The data set is classed as physicochemical. The settings on record: solution in unbuffered water. The protocol: 100 μL of the appropriate buffer was added to form a slurry.

As for “N-(3-(4-(3-(diisobutylamino)propyl)piperazin-1-yl)propyl)-1H-benzo[d]imidazol-2-amine sesqui-succinate salt [sesqui-succinate salt Form 1]”, the “XRPD crystallinity or form after 7-day stability tests” value in data set [1] (40° C./75% RH, 80° C. and ambient light) is on record as “no change to crystallinity or form”. Also, the “Purity (%) by HPLC after 7-day stability test” value in data set [1] (40° C./75% RH) is on record as 98.5%; in data set [1] (80° C.), 98.3%; in data set [1] (Ambient Light) it was 98.4%. Further, the “change in HPLC purity after 7-day stability test” value in data set [1] (each stability condition) is on record as “no change in purity”. The α-syn aggregation result in the data set on α-syn aggregation [2] (coincubation, 50 or 100 nM) was “significantly reduced”; in the data set with α-syn aggregation [2] (pre-incubation, all tested concentrations), “significantly reduced”; in the data set on α-syn aggregation [6] (100 nM co-administered), “prevented”; with α-syn aggregation [6] (pre-incubated or applied directly with rotenone, 10 to 100 nM), “significantly reduced”. The “neuron survival: total number of TH neurons” value in data set [3] (administered directly with rotenone, all concentrations) is reported as “significantly increased neuronal survival”; in data set [3] (pre-incubated, 10 and 50 nM), “significantly neuroprotective”; in data set [5], “neuroprotective”. Moreover, the “neurite network of TH positive neurons” value in data set [3] (pre and co-treatment, 10 to 100 nM) is “significantly improved”; in data set [5] it was “significantly improved”. The “Post-GVS XRPD crystalline form” value in data set [4] (after exposure to GVS humidity conditions) is “remain as the same crystalline form”. For the same substance, in data set [4] (at 70% RH, 25° C.), the GVS weight uptake entry is given as “ca. +0.1 wt. %”. Further, the “GVS water uptake in equivalents” value in data set [4] (up to 90% RH) is given as “approximately 7.1 equiv. water”. In data set [4] (up to 90% RH, 25° C.), the GVS weight increase entry is “ca. +18.9 wt. %”. Further, the hygroscopicity result in data set [4] (up to 90% relative humidity) is on record as “not hygroscopic”. The substance further registered a pH measurement in data set [7] of 5.28.

The values above are taken from patent publication US20230391729A1, “SUCCINATE SALTS OF N-(3-(4-(3-(DIISOBUTYLAMINO)PROPYL)PIPERAZIN-1-YL)PROPYL)-1H-BENZO[D]IMIDAZOL-2-AMINE, PREPARATION THEREOF AND USE OF THE SAME” (ALZPROTECT, priority 2020, published 2023).
